“Also recorded” adds a separate entry of the source.
What was measured:
[1] = Phase I study of SEQ ID NO:1: pharmacokinetics; conditions: patients
Protocol: On Day 1 a heparinized blood sample was collected at baseline and then at 1, 2, 3, 4 and 6 hours after start of infusion. On Days 8 and 15, a single heparinized sample was taken. On Day 22 a heparinized blood sample was collected prior to the end of infusion and at 0.25, 0.5, 1, 2, 4 and 6 hours following the end of infusion. Plasma was decanted and stored at −70° C.
Pharmacokinetic parameters were assessed. SEQ ID NO:1 was administered using a portable infusion pump in cycles of 21 days CVI followed by one week of rest. […] Doses were doubled in cohorts of 1-3 patients until the appearance of Gr 1 toxicity, with subsequent escalation of 20-30% in cohorts of 3 patients. DLT was defined as Gr 4 neutropenia lasting 3 days or with fever; Gr 4 thrombocytopenia (T) or Gr 3 T with Gr 1 bleeding; or Gr 3 non-hematologic toxicity.

[2] = test system: glioblastoma-astrocytoma (U-87 MG); experiment: Human glioblastoma-astrocytoma tumour growth in mice; type: in vivo, human cells in mice
Protocol: Unless noted otherwise in this Example human tumour cell lines were purchased from the American Type Culture Collections (ATCC) (Rockville, Md.). Human colon adenocarcinoma (HT-29), non-small cell lung carcinoma (NCI-H460), melanoma (A2058), breast adenocarcinoma (MDA-MB-231), pancreatic carcinoma (AsPC-1 and SU.86.86), glioblastoma-astrocytoma (U-87 MG), renal carcinoma (A498 and Caki-1), ovarian carcinoma (SK-OV-3), cervical carcinoma (HeLa S3), prostate carcinoma (PC-3), bladder carcinoma (T24), Burkitt's lymphoma (Raji) and hepatocellular carcinoma (Hep G2) were maintained, according to ATCC recommendation, in α-MEM, RPMI1640, or McCoy's 5a medium (Invitrogen Canada Inc. Burlington, Ontario) supplemented with 10-20% fetal calf serum (FCS) at 37° C. in a humidified atmosphere containing 5% CO2. Normal human cell lines, WI-38 (human lung fibroblast) and HUVEC (human umbilical vein endothelial cells) and murine R3 (fibrosarcoma) and L (Ltk^− fibroblast) cells were maintained as mentioned above. […]
FIG. 29 summarizes the results of a statistical analysis of data compiled from a number of experiments in which the effect of SEQ ID NO:1 on tumour growth was assessed in human tumour cell xenografts in mice. […]

[3] = test system: A498 human kidney cancer cells; experiment: A498 kidney tumour xenograft in SCID mice, controls and chemotherapeutics (Example 7); type: in vivo, human cells in mice; conditions: oligonucleotides 10 mg/kg/2 days i.v., 5-FU 13 mg/kg/day×5, vinblastine 1 mg/kg/week, gemcitabine 100 mg/kg/week
Excerpt: CD-1 athymic female nude mice, BALB/c nu/nu nude mice, SCID, and SCID beige mice were purchased from Charles River Laboratories (Montreal, Canada) and experiments were typically initiated when the mice were 6-7 weeks old. […] Each experimental group typically contained 10 mice. After the size of tumour reached a mean tumour volume of 50-100 mm^3, treatment was initiated. […] Anti-tumour activity was estimated by the measurement of tumour volume with a calliper at two-three day intervals. Tumour volume was calculated by a formula L×W×H/2, where L indicates length, W indicates width and H indicates height. Within 24 hours after the last treatment, the animals were sacrificed and tumour and body weights were measured. Results of statistical analyses of the data are presented as P values in the figure legends.
Three additional treatment groups received: 5-FU (13 mg/kg/day×5), vinblastine (1 mg/kg/week) and gemcitabine (100 mg/kg/week). […] Caliper measurements at 1-week intervals were used to calculate tumour volumes. Each point in FIG. 28C represents mean tumour volume calculated from 10 animals per experimental group (with the exception of SEQ ID NO: 1 which was 8 animals). […] After 54 days the mice were sacrificed and the A498 tumours weighed. Each bar represents the mean tumour weight and standard error calculated for each treatment group.

[4] = 21-day continuous infusion toxicity study in the monkey with a 3-week recovery; type: in vivo
Protocol: A second repeat-dose study was conducted in monkeys to evaluate the toxicity associated with administration of test article by continuous intravenous infusion for 21 days followed by a 21-day recovery period. Twenty-eight monkeys were administered one of the following dose levels; vehicle control, 2 mg/kg/day, 10 mg/kg/day, or 50 mg/kg/day. Toxicokinetic samples were collected prior to the initiation of infusion, approximately 8, 24, 48, and 96 hours following the start of infusion, and on Day 20 prior to the change in dose-syringes. […] As in the previous rat study, the 2 mg/kg/day dose level was identified as the no-adverse-effect-level (NOAEL).

[5] = test system: Caki renal tumour xenografts; experiment: Caki renal tumour xenografts in SCID/beige mice (immune stimulation); type: in vivo, human cells in mice; conditions: Caki renal tumour xenografts in SCID/beige mice (lack B, T and NK cell function)
Protocol: To directly determine whether SEQ ID NO:1 treatment results in CpG stimulation of NK-mediated anti-tumour activity, the efficacy of SEQ ID NO:1 on human tumour xenografts in SCID/beige mice was assessed (FIG. 32). SCID/beige mice lack B, T and NK cell function and as such these mice cannot mount a significant innate or acquired immune response.

[6] = continuous i.v. infusion 21 days

Substance: 5′-GGCTAAATCGCTCCACCAAG-3′ (all phosphorothioate, sugars by position and methylation of C not given here) [SEQ ID NO: 1, fully phosphorothioated antisense oligonucleotide that hybridizes to the coding region of R2 mRNA]
- AUC, mean (coefficient of variation) ([1]; 37 mg/m^2/day CVI): 7.54 (141)^$ μg · hr/ml
- Clearance ([1]; 37 mg/m^2/day CVI): 595 L/m^2/day
- Cmax, mean (coefficient of variation) ([1]; 37 mg/m^2/day CVI): 0.09 (141) μg/ml
- Css, mean (coefficient of variation) ([1]; 37 mg/m^2/day CVI): 0.03 (141) μg/ml
- AUC, mean (coefficient of variation) ([1]; 74 mg/m^2/day CVI): 15.5 (141) μg · hr/ml
- Cmax, mean (coefficient of variation) ([1]; 74 mg/m^2/day CVI): 0.61 (141) μg/ml
- AUC, mean (coefficient of variation) ([1]; 148 mg/m^2/day CVI): 426 (87) μg · hr/ml
- Clearance, mean (coefficient of variation) ([1]; 148 mg/m^2/day CVI): 244 (90) L/m^2/day
- Cmax, mean (coefficient of variation) ([1]; 148 mg/m^2/day CVI): 2.2 (41) μg/ml
- Css, mean (coefficient of variation) ([1]; 148 mg/m^2/day CVI): 0.77 (94) μg/ml
- T1/2, mean (coefficient of variation) ([1]; 148 mg/m^2/day CVI): 0.79 (25) hr
- AUC, mean (coefficient of variation) ([1]; 185 mg/m^2/day CVI): 340 (67) μg · hr/ml
- Clearance, mean (coefficient of variation) ([1]; 185 mg/m^2/day CVI): 558 (119) L/m^2/day
- Cmax, mean (coefficient of variation) ([1]; 185 mg/m^2/day CVI): 2.15 (57) μg/ml
- Css, mean (coefficient of variation) ([1]; 185 mg/m^2/day CVI): 0.63 (98) μg/ml
- T1/2, mean (coefficient of variation) ([1]; 185 mg/m^2/day CVI): 2.74 (171) hr
- AUC, mean (coefficient of variation) ([1]; 222 mg/m^2/day CVI): 380 (94) μg · hr/ml
- Clearance, mean (coefficient of variation) ([1]; 222 mg/m^2/day CVI): 483 (161) L/m^2/day
- Cmax, mean (coefficient of variation) ([1]; 222 mg/m^2/day CVI): 2.98 (99) μg/ml
- Css, mean (coefficient of variation) ([1]; 222 mg/m^2/day CVI): 1.24 (87) μg/ml
- T1/2, mean (coefficient of variation) ([1]; 222 mg/m^2/day CVI): 1.43 (46) hr
- mean steady-state plasma concentration ([1]; phase II dose (185 mg/m^2/day), preliminary analysis): 0.6 µg/mL
- t1/2 ([1]; preliminary analysis): about 2 hrs
- Inhibition of tumour weight [2]: ~65%
- Effect on tumour growth (volume and weight) [3]: dramatic inhibition in growth of Caki-1 and A498 renal tumours; also recorded: superior to any of these compounds
- Deaths ([4]; 2, 10 or 50 mg/kg/day continuous i.v. infusion 21 days): No unplanned deaths
- Reversibility of changes ([4]; 3-week post-dosing treatment-free period): reversed either completely or partially
- Toxicity findings ([4]; 10 and 50 mg/kg/day continuous i.v. infusion 21 days): splenic histiocytosis, anticoagulant effects, complement activation, and continuous infusion effects
- Target organs (histopathologic changes) [4, 6]: kidneys, liver, and lymph nodes
- no-adverse-effect-level (NOAEL) [4, 6]: 2 mg/kg/day
- Anti-tumour effect (FIG. 32) [5]: effectively treated; also recorded: equivalent in extent and kinetics to that obtained in the SCID mouse model; also recorded: anti-tumour activity is specific to the R2 complementary sequence

Reference: US7968526B2, “Antisense oligonucleotides directed to ribonucleotide reductase R2 and uses thereof in the treatment of cancer” (Lorus Therapeutics Inc., priority 2003, dated 2011)
